Patent US20250230193A1, “CYCLIC COMPOUND HAVING SELECTIVE KRAS INHIBITORY EFFECT ON HRAS AND NRAS” (CHUGAI SEIYAKU KABUSHIKI KAISHA, priority 2022, published 2025)

Experiments:
[1] = biological target: GDP-bound HRAS wild-type protein (Homo sapiens, UniProt P01112); assay: Binding to HRAS by surface plasmon resonance (SPR), Single Cycle Kinetics; conditions: for HRAS/KRAS (ratio of KD value for HRAS to KD value for KRAS) / HRAS/KRAS (ratio of KD value with respect to HRAS to KD value with respect to KRAS): GDP-bound HRAS wild-type vs GDP-bound KRAS wild-type
[2] = biological target: GDP-bound NRAS wild-type protein (Homo sapiens, UniProt P01111); assay: Binding to NRAS by surface plasmon resonance (SPR), Single Cycle Kinetics; conditions: for NRAS/KRAS (ratio of KD value for NRAS to KD value for KRAS) / NRAS/KRAS (ratio of KD value with respect to NRAS to KD value with respect to KRAS): GDP-bound NRAS wild-type vs GDP-bound KRAS wild-type
GDP-bound NRAS wild-type protein, sequence (P01111 whole entry): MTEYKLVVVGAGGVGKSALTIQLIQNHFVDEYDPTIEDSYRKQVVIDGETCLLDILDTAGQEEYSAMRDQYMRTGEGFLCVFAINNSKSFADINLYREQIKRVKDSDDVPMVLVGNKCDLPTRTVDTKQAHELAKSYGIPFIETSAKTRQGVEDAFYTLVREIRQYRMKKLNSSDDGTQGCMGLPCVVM

GDP-bound HRAS wild-type protein, sequence (P01112 whole entry): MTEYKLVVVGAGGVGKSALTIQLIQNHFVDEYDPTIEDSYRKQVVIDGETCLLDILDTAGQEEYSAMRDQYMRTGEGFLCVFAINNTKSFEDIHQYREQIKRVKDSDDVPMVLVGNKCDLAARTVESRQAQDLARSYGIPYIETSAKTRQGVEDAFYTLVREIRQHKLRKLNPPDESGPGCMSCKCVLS

## CCO[C@@H]1C[C@H]2C(=O)NC3(CC(C)(C)C3)C(=O)N(C)[C@@H](C3CCCC3)C(=O)N3CCC[C@@H]3CC(=O)N(C)[C@@H](CC)C(=O)N[C@@H]([C@@H](C)CC)C(=O)N(C)CC(=O)N(C)[C@H]3C/C=C\CCN(C3=O)[C@@H](CC3CCCCC3)C(=O)N(C)CC(=O)N[C@@H](CCc3cc(F)c(C(F)(F)F)c(F)c3)C(=O)N2C1 [PP1620]
[1]; KD ratio, SPR
  HRAS/KRAS (ratio of KD value for HRAS to KD value for KRAS): B (a compound having 3 or more and less than 10 is denoted as B)
[2]; KD ratio, SPR
  NRAS/KRAS (ratio of KD value for NRAS to KD value for KRAS): B (a compound having 3 or more and less than 10 is denoted as B)

## CCO[C@@H]1C[C@H]2C(=O)NC3(CCC3)C(=O)N(C)[C@@H](C3CCCC3)C(=O)N(C)[C@H](C(=O)N(C)C)CC(=O)N(C)[C@@H](CC(F)(F)F)C(=O)N[C@@H]([C@@H](C)CC)C(=O)N(C)CC(=O)N(C)[C@H]3C/C=C\CCN(C3=O)[C@@H](Cc3ccc(C(F)(F)F)cc3)C(=O)N(C)CC(=O)N[C@@H](CCc3cc(F)c(C(F)(F)F)c(F)c3)C(=O)N2C1 [PP1124]
[1]; KD ratio, SPR
  HRAS/KRAS (ratio of KD value with respect to HRAS to KD value with respect to KRAS): B (a compound having 3 or more and less than 10 is denoted as B)
[2]; KD ratio, SPR
  NRAS/KRAS (ratio of KD value with respect to NRAS to KD value with respect to KRAS): A (a compound having 10 or more and less than 20 is denoted as A)

## CCO[C@@H]1C[C@H]2C(=O)NC3(CC(F)(F)C3)C(=O)N(C)[C@@H](C3CCCC3)C(=O)N(C)[C@H](C(=O)N(C)C)CC(=O)N(C)[C@@H](CC(C)C)C(=O)N[C@@H]([C@@H](C)CC)C(=O)N(C)CC(=O)N(C)[C@H]3C/C=C\CCN(C3=O)[C@@H](Cc3ccc(C(F)(F)F)cc3)C(=O)N(C)CC(=O)N[C@@H](CCc3cc(F)c(C(F)(F)F)c(F)c3)C(=O)N2C1 [PP1741]
[1]; KD ratio, SPR
  HRAS/KRAS (ratio of KD value for HRAS to KD value for KRAS): B (a compound having 3 or more and less than 10 is denoted as B)
[2]; KD ratio, SPR
  NRAS/KRAS (ratio of KD value for NRAS to KD value for KRAS): A (a compound having 10 or more and less than 20 is denoted as A)

## CCO[C@@H]1C[C@H]2C(=O)NC3(CCC3)C(=O)N(C)[C@@H](C3CCCC3)C(=O)N(C)[C@H](C(=O)N3CCOCC3)CC(=O)N(C)[C@@H](Cc3cccc(F)c3)C(=O)N[C@@H]([C@@H](C)CC)C(=O)N(C)CC(=O)N(C)[C@H]3CCCCCN(C3=O)[C@@H](Cc3ccc(C(F)(F)F)cc3)C(=O)N(C)CC(=O)N[C@@H](CCc3cc(F)c(C(F)(F)F)c(F)c3)C(=O)N2C1 [PP0856]
[1]; KD ratio, SPR
  HRAS/KRAS (ratio of KD value with respect to HRAS to KD value with respect to KRAS): B (a compound having 3 or more and less than 10 is denoted as B)
[2]; KD ratio, SPR
  NRAS/KRAS (ratio of KD value with respect to NRAS to KD value with respect to KRAS): B (a compound having 3 or more and less than 10 is denoted as B)

## CCC[C@H]1C(=O)N[C@@H]([C@@H](C)CC)C(=O)N(C)CC(=O)N(C)[C@H]2C/C=C\CCN(C2=O)[C@@H](Cc2ccc(C(F)(F)F)cc2)C(=O)N(C)CC(=O)N[C@@H](CCc2cc(F)c(C(F)(F)F)c(F)c2)C(=O)N2C[C@H](OCC)C[C@H]2C(=O)NC2(CCC2)C(=O)N(C)[C@@H](C2CCCC2)C(=O)N(C)[C@H](C(=O)N(C)CCOC)CC(=O)N1C [PP1331]
[1]; SPR, KD ratio class
  HRAS/KRAS (ratio of KD value for GDP-bound HRAS wild-type protein to KD value for KRAS): A (a compound having 10 or more and less than 20 is denoted as A)
[2]; SPR, KD ratio class
  NRAS/KRAS (ratio of KD value for GDP-bound NRAS wild-type protein to KD value for KRAS): A (a compound having 10 or more and less than 20 is denoted as A)

## CCC[C@H]1C(=O)N[C@@H]([C@@H](C)CC)C(=O)N(C)CC(=O)N(C)[C@H]2C/C=C\CCN(C2=O)[C@@H](Cc2ccc(C(F)(F)F)cc2)C(=O)N(C)CC(=O)N[C@@H](CCc2cc(F)c(C(F)(F)F)c(F)c2)C(=O)N2C[C@H](F)C[C@H]2C(=O)NC2(CC(C)(C)C2)C(=O)N(C)[C@@H](C2CCCC2)C(=O)N(C)[C@H](C(=O)N(C)C)CC(=O)N1C [PP1689]
[1]; KD ratio, SPR
  HRAS/KRAS (ratio of KD value for HRAS to KD value for KRAS): B (a compound having 3 or more and less than 10 is denoted as B)
[2]; KD ratio, SPR
  NRAS/KRAS (ratio of KD value for NRAS to KD value for KRAS): A (a compound having 10 or more and less than 20 is denoted as A)

## CCO[C@@H]1C[C@H]2C(=O)NC3(CC(C)(C)C3)C(=O)N(C)[C@@H](C(CC)CC)C(=O)N(C)[C@H](C(=O)N(C)C)CC(=O)N(C)[C@@H](CC3CC3)C(=O)N[C@@H]([C@@H](C)CC)C(=O)N(C)CC(=O)N(C)[C@H]3C/C=C\CCN(C3=O)[C@@H](Cc3ccc(C(F)(F)F)cc3)C(=O)N(C)CC(=O)N[C@@H](CCc3cc(F)c(C(F)(F)F)c(F)c3)C(=O)N2C1 [PP2119]
[1]; SPR
  HRAS/KRAS (ratio of KD value with respect to HRAS to KD value with respect to KRAS): B (a compound having 3 or more and less than 10 is denoted as B)
[2]; SPR
  NRAS/KRAS (ratio of KD value with respect to NRAS to KD value with respect to KRAS): A (a compound having 10 or more and less than 20 is denoted as A)

## CCC(CC)[C@H]1C(=O)N(C)[C@H](C(=O)N(C)C)CC(=O)N(C)[C@@H](COC)C(=O)N[C@@H]([C@@H](C)CC)C(=O)N2CCC[C@H]2C(=O)N(C)[C@H]2C/C=C\CCN(C2=O)[C@@H](Cc2ccc(C(F)(F)F)cc2)C(=O)N(C)CC(=O)N[C@@H](CCc2ccc(Cl)c(Cl)c2)C(=O)N2C[C@H](OC(C)C)C[C@H]2C(=O)NC2(CC(C)(C)C2)C(=O)N1C [PP2639]
[1]; KD ratio HRAS/KRAS, class symbols
  HRAS/KRAS (ratio of KD value with respect to GDP-bound HRAS wild-type protein to KD value with respect to KRAS): A (a compound having 10 or more and less than 20 is denoted as A)
[2]; KD ratio NRAS/KRAS, class symbols
  NRAS/KRAS (ratio of KD value with respect to GDP-bound NRAS wild-type protein to KD value with respect to KRAS): AA (a compound having 20 or more is denoted as AA)
